The results in this text go back to the OligoGym collection.

HELM strings list units from the 5' end as sugar, base in round brackets, then linkage (d deoxyribose, r ribose, m 2'-O-methyl, p phosphodiester). Strings are as the collection lists them; they lack the last nucleoside at the 3' end of the tested compound. [moe] = 2'-O-(2-methoxyethyl) (MOE); [sp] = phosphorothioate linkage; [m5C] = 5-methylcytosine

The target of this series is UBE3A-ATS. As to the kind of experiment: mouse, dose not given. To be noted: ASO.

For “RNA1{[moe](T)[sp].[moe](T)p.[moe](T)p.[moe](T)p.[moe](T)p.[moe]([m5C])p.d([m5C])[sp].d(A)[sp].d(T)[sp].d(T)[sp].d(T)[sp].d(T)[sp].d(T)[sp].d([m5C])[sp].d(T)[sp].d([m5C])[sp].[moe](T)p.[moe](T)[sp].[moe](A)}$$$$ (last 3' nucleoside missing)”, the 3 h FOB score stood at 1 score 0-7. As to “RNA1{[moe](T)[sp].[moe](A)p.[moe](A)p.[moe](A)p.[moe](A)p.d([m5C])[sp].d(G)[sp].d([m5C])[sp].d(A)[sp].d(A)[sp].d(T)[sp].d(G)[sp].d(T)[sp].d(A)[sp].d(T)[sp].[moe]([m5C])p.[moe](A)p.[moe](G)[sp].[moe](G)}$$$$ (last 3' nucleoside missing)”, the 3 h FOB score was 1 score 0-7.

“RNA1{[moe](G)[sp].[moe]([m5C])p.[moe]([m5C])p.[moe](A)p.[moe](G)p.[moe](G)[sp].d(T)[sp].d(G)[sp].d(T)[sp].d([m5C])[sp].d(T)[sp].d(T)[sp].d(A)[sp].d(T)[sp].[moe](A)p.[moe](T)[sp].[moe]([m5C])}$$$$ (last 3' nucleoside missing)” showed a 3 h FOB score of 0 score 0-7.

Substance “RNA1{[moe](G)[sp].[moe]([m5C])p.[moe](A)p.[moe](T)p.d(A)[sp].d([m5C])[sp].d([m5C])[sp].d([m5C])[sp].d(A)[sp].d(G)[sp].d(G)[sp].d(G)[sp].d(T)[sp].d(A)[sp].[moe](G)p.[moe](G)p.[moe](A)p.[moe](T)[sp].[moe](T)}$$$$ (last 3' nucleoside missing)” showed a 3 h FOB score of 1 score 0-7.

In turn, “RNA1{[moe](T)[sp].[moe](G)p.[moe]([m5C])p.[moe](T)p.d(G)[sp].d(A)[sp].d(T)[sp].d([m5C])[sp].d(A)[sp].d([m5C])[sp].d(A)[sp].d(T)[sp].d(T)[sp].d(A)[sp].[moe]([m5C])p.[moe]([m5C])p.[moe]([m5C])p.[moe](A)[sp].[moe](T)}$$$$ (last 3' nucleoside missing)” returned a 3 h FOB score of 0 score 0-7. For “RNA1{[moe](T)[sp].[moe](G)p.[moe](T)p.[moe](G)p.[moe](T)p.d(G)[sp].d(T)[sp].d(T)[sp].d(T)[sp].d(T)[sp].d(T)[sp].d([m5C])[sp].d([m5C])[sp].d(A)[sp].d(T)[sp].[moe](T)p.[moe](T)p.[moe](T)[sp].[moe](T)}$$$$ (last 3' nucleoside missing)”, the 3 h FOB score was found to be 0 score 0-7. With “RNA1{[moe]([m5C])[sp].[moe](T)p.[moe](T)p.[moe]([m5C])p.[moe](A)p.d([m5C])[sp].d([m5C])[sp].d(A)[sp].d(T)[sp].d(T)[sp].d(T)[sp].d(T)[sp].d(G)[sp].d(A)[sp].d([m5C])[sp].[moe]([m5C])p.[moe](T)p.[moe](T)[sp].[moe]([m5C])}$$$$ (last 3' nucleoside missing)” the figure was 1 score 0-7; with “RNA1{[moe](A)[sp].[moe](T)p.[moe](T)p.[moe](G)p.[moe](A)p.d([m5C])[sp].d(A)[sp].d([m5C])[sp].d([m5C])[sp].d(T)[sp].d([m5C])[sp].d([m5C])[sp].d(A)[sp].d(A)[sp].d([m5C])[sp].[moe](T)p.[moe](G)p.[moe](T)[sp].[moe](A)}$$$$ (last 3' nucleoside missing)”, 0.7 score 0-7; with “RNA1{[moe](G)[sp].[moe](G)p.[moe](G)p.[moe](T)p.[moe](A)p.d(T)[sp].d(T)[sp].d(G)[sp].d([m5C])[sp].d(T)[sp].d(G)[sp].d(T)[sp].d([m5C])[sp].d([m5C])[sp].d(A)[sp].[moe](A)p.[moe](A)p.[moe](T)[sp].[moe](G)}$$$$ (last 3' nucleoside missing)”, 6.8 score 0-7. “RNA1{[moe]([m5C])[sp].[moe](T)p.[moe]([m5C])p.[moe](A)p.[moe](G)[sp].d(T)[sp].d(T)[sp].d(A)[sp].d(G)[sp].d(G)[sp].d(T)[sp].d(T)[sp].d(A)[sp].[moe](G)p.[moe](T)p.[moe](G)[sp].[moe]([m5C])}$$$$ (last 3' nucleoside missing)” gave a 3 h FOB score of 1.3 score 0-7. “RNA1{[moe](A)[sp].[moe](G)p.[moe](A)p.[moe]([m5C])p.[moe](T)p.d(A)[sp].d(T)[sp].d([m5C])[sp].d([m5C])[sp].d(T)[sp].d(G)[sp].d(G)[sp].d(T)[sp].d(A)[sp].d(T)[sp].[moe](G)p.[moe](A)p.[moe]([m5C])[sp].[moe](T)}$$$$ (last 3' nucleoside missing)” came in with a 3 h FOB score of 6 score 0-7. Substance “RNA1{[moe](G)[sp].[moe](T)p.[moe](G)p.[moe](A)p.[moe](G)p.d([m5C])[sp].d(T)[sp].d(T)[sp].d(T)[sp].d(A)[sp].d([m5C])[sp].d(T)[sp].d([m5C])[sp].d(T)[sp].d(G)[sp].[moe]([m5C])p.[moe](A)p.[moe](A)[sp].[moe](T)}$$$$ (last 3' nucleoside missing)” yielded a 3 h FOB score of 1 score 0-7. With “RNA1{[moe](T)[sp].[moe]([m5C])[sp].[moe]([m5C])[sp].[moe](T)[sp].[moe](T)[sp].d(T)[sp].d(A)[sp].d(G)[sp].d([m5C])[sp].d(A)[sp].d(T)[sp].d(T)[sp].d(T)[sp].d([m5C])[sp].d(T)[sp].[moe](A)[sp].[moe](T)[sp].[moe](T)[sp].[moe](A)}$$$$ (last 3' nucleoside missing)” the figure was 6.5 score 0-7. With “RNA1{[moe](A)[sp].[moe](A)p.[moe]([m5C])p.[moe](T)p.[moe](G)p.d([m5C])[sp].d(T)[sp].d(T)[sp].d([m5C])[sp].d(A)[sp].d([m5C])[sp].d([m5C])[sp].d(A)[sp].d(T)[sp].d(T)[sp].[moe](T)p.[moe](T)p.[moe](G)[sp].[moe](A)}$$$$ (last 3' nucleoside missing)” the figure was 0 score 0-7; with “RNA1{[moe](T)[sp].[moe](T)p.[moe](T)p.[moe](A)p.[moe](T)p.d(A)[sp].d([m5C])[sp].d(T)[sp].d(T)[sp].d(T)[sp].d(A)[sp].d([m5C])[sp].d([m5C])[sp].d([m5C])[sp].d(A)[sp].[moe](A)p.[moe]([m5C])p.[moe](T)[sp].[moe](T)}$$$$ (last 3' nucleoside missing)”, 0 score 0-7.

As for “RNA1{[moe](T)[sp].[moe](G)p.[moe](A)p.[moe](G)p.[moe]([m5C])p.[moe](T)p.d(A)[sp].d(T)[sp].d([m5C])[sp].d(T)[sp].d(G)[sp].d(T)[sp].d(A)[sp].d([m5C])[sp].d(A)[sp].d(A)[sp].[moe](A)p.[moe](A)[sp].[moe](T)}$$$$ (last 3' nucleoside missing)”, the 3 h FOB score was 5.3 score 0-7.

In turn, “RNA1{[moe](G)[sp].[moe](G)p.[moe](G)p.[moe](T)p.[moe](A)p.d(G)[sp].d(A)[sp].d(A)[sp].d(G)[sp].d(A)[sp].d([m5C])[sp].d(T)[sp].d(A)[sp].d(G)[sp].d([m5C])[sp].[moe](A)p.[moe](T)p.[moe](A)[sp].[moe]([m5C])}$$$$ (last 3' nucleoside missing)” gave a 3 h FOB score of 5.8 score 0-7. In the case of “RNA1{[moe](T)[sp].[moe](G)p.[moe]([m5C])p.[moe](T)p.[moe](G)p.[moe](A)p.d(T)[sp].d([m5C])[sp].d(A)[sp].d([m5C])[sp].d(A)[sp].d(T)[sp].d(T)[sp].d(A)[sp].d([m5C])[sp].d([m5C])[sp].[moe]([m5C])p.[moe](A)[sp].[moe](T)}$$$$ (last 3' nucleoside missing)”, the 3 h FOB score was determined as 1 score 0-7.

As to “RNA1{[moe](G)[sp].[moe](A)p.[moe](T)p.[moe]([m5C])p.[moe](T)p.d(T)[sp].d(G)[sp].d(G)[sp].d(T)[sp].d(A)[sp].d(A)[sp].d(G)[sp].d(G)[sp].d([m5C])[sp].d(A)[sp].[moe](G)p.[moe]([m5C])p.[moe](T)[sp].[moe]([m5C])}$$$$ (last 3' nucleoside missing)”, the 3 h FOB score worked out at 6.8 score 0-7. In the case of “RNA1{[moe](G)[sp].[moe](T)p.[moe](G)p.[moe]([m5C])p.[moe](A)p.d(T)[sp].d(A)[sp].d([m5C])[sp].d([m5C])[sp].d([m5C])[sp].d(A)[sp].d(G)[sp].d(G)[sp].d(G)[sp].d(T)[sp].[moe](A)p.[moe](G)p.[moe](G)[sp].[moe](A)}$$$$ (last 3' nucleoside missing)” it was 1.2 score 0-7.

With “RNA1{[moe](T)[sp].[moe](T)p.[moe](T)p.[moe](A)p.[moe](T)p.d(T)[sp].d(G)[sp].d(G)[sp].d(T)[sp].d([m5C])[sp].d(A)[sp].d(T)[sp].d([m5C])[sp].d(T)[sp].d([m5C])[sp].[moe](G)p.[moe](G)p.[moe](G)[sp].[moe](T)}$$$$ (last 3' nucleoside missing)”, the 3 h FOB score stood at 3.7 score 0-7. “RNA1{[moe](T)[sp].[moe](G)p.[moe]([m5C])p.[moe](T)p.d([m5C])[sp].d(A)[sp].d(G)[sp].d(T)[sp].d(T)[sp].d(A)[sp].d(G)[sp].d(G)[sp].d(T)[sp].d(T)[sp].[moe](A)p.[moe](G)p.[moe](T)p.[moe](G)[sp].[moe]([m5C])}$$$$ (last 3' nucleoside missing)”: the 3 h FOB score stood at 4 score 0-7.

The substance “RNA1{[moe](T)[sp].[moe](T)p.[moe]([m5C])p.[moe](A)p.[moe]([m5C])p.[moe]([m5C])p.d(A)[sp].d(T)[sp].d(T)[sp].d(T)[sp].d(T)[sp].d(G)[sp].d(A)[sp].d([m5C])[sp].d([m5C])[sp].d(T)[sp].[moe](T)p.[moe]([m5C])[sp].[moe](T)}$$$$ (last 3' nucleoside missing)” returned a 3 h FOB score of 0 score 0-7.

For the substance “RNA1{[moe](G)[sp].[moe](G)p.[moe](G)p.[moe](A)p.[moe](G)p.d(G)[sp].d(A)[sp].d(G)[sp].d(T)[sp].d([m5C])[sp].d([m5C])[sp].d([m5C])[sp].d([m5C])[sp].d(A)[sp].d(G)[sp].[moe](A)p.[moe](T)p.[moe](A)[sp].[moe](A)}$$$$ (last 3' nucleoside missing)”, the 3 h FOB score is 1.2 score 0-7. With “RNA1{[moe]([m5C])[sp].[moe](A)p.[moe]([m5C])p.[moe](T)p.[moe]([m5C])p.d(T)[sp].d(A)[sp].d(T)[sp].d(A)[sp].d(G)[sp].d(G)[sp].d(T)[sp].d(T)[sp].d([m5C])[sp].d(A)[sp].[moe](A)p.[moe](G)p.[moe]([m5C])[sp].[moe](A)}$$$$ (last 3' nucleoside missing)” the figure was 4 score 0-7.
